For assay [1], the target named is T1, GalNAc-T2 lectin domain (Homo sapiens, UniProt Q10471).
T1 construct: comprises amino acid residues 408-571 of GALNT2; made in house; host or cells: baculovirus (pAcGP67-A), virus made in Sf9, protein produced in High Five insect cells
T1 sequence (Q10471 408-571): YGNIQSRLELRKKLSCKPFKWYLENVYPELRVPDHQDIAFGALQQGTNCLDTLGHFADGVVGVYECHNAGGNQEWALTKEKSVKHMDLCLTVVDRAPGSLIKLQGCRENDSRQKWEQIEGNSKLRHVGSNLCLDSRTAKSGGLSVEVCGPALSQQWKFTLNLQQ
Nature of the assay: Inhibition of GalNAc-T2 lectin domain (T2ld) binding to GalNAc-MUC1 glycopeptide, ELISA. As for the experimental part:
(§1) Direct binding ELISA assay was developed as follows: Polystyrene microtiter plates (Maxisorb, Nunc, Denmark) were coated with peptides or enzymatically glycosylated glycopeptides in PBS overnight at 4° C. Plates were washed and blocked with 0.1% Tween20 and 0.2% BSA in PBS for 1 h at room temperature, followed by incubation with biotinylated proteins in PBS with 0.05% Tween20 for 2 h at room temperature. After four washes with PBS, plates were incubated with 1:2,000 dilution streptavidin-HRP (Sigma) in PBS for 30 min at room temperature and washed four times with PBS. Development was performed with 0.5 mg/ml o-phenylenediamine and 0.02% H2O2 at room temperature for 15 min, and reaction stopped by adding 100 μl/well of 0.5 N H2SO4. Competitive inhibition assays were done at end-point titers of GalNAc-transferase proteins with one hour preincubations with inhibitor.
(§2) In binding studies using lectins without biotinylation antibodies to the HIS-tag and the T7-tag, or in some experiments antibodies raised to GalNAc-T2 and -T4 enzymes were used to detect binding.
(§3) Inhibition experiments were used to further define the binding specificity of GalNAc-T2 and -T4 secreted soluble enzymes as well as lectin domains compared to Helix Pomatia lectin (Table IV).

The target of assay [2] is T2, secreted soluble GalNAc-T2 (Homo sapiens, UniProt Q10471).
T2 construct: 6xHis (N); thrombin cleavage site (N); T7 antibody site (N); made in house; host or cells: baculovirus (pAcGP67A), High Five insect cells
T2 sequence (Q10471 52-571 limits assumed): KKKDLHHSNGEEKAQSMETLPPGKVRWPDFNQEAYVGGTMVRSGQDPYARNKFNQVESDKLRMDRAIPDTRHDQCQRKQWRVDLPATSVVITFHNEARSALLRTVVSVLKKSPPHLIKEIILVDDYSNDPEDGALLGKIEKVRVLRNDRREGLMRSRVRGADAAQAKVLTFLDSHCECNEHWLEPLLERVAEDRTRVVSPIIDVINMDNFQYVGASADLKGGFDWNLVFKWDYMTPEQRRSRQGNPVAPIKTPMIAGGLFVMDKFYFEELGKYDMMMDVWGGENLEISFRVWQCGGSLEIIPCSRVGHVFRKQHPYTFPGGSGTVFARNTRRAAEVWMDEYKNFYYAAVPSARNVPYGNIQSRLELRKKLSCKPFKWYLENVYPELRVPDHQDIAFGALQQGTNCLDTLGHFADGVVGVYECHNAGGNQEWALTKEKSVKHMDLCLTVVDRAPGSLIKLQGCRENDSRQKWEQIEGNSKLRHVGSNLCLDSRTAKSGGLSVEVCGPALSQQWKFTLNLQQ
Description: Inhibition of secreted soluble GalNAc-T2 (sT2) binding to GalNAc-MUC1 glycopeptide, ELISA. The method, then: as §1, §3
A general note: In an ELISA, binding on a coated surface is turned into a signal by an enzyme label.

For assay [3], the target named is T3, GalNAc-T4 lectin domain (Homo sapiens, UniProt Q8N4A0).
T3 construct: comprises amino acid residues 405-578 of GALNT4; made in house; host or cells: baculovirus (pAcGP67-A), virus made in Sf9, protein produced in High Five insect cells
T3 sequence (Q8N4A0 405-578): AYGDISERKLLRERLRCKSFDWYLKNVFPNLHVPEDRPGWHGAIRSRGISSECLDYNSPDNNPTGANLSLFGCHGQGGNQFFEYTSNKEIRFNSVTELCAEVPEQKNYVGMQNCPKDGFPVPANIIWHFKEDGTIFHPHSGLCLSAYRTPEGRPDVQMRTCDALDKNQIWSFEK
Nature of the assay: Inhibition of GalNAc-T4 lectin domain (T4ld) binding to GalNAc-MUC1 glycopeptide, ELISA. As for the experimental part:
as §1, §2, §3

Assay [4] addresses T4, secreted soluble GalNAc-T4 (Homo sapiens, UniProt Q8N4A0).
T4 construct: 6xHis (N); thrombin cleavage site (N); T7 antibody site (N); made in house; host or cells: baculovirus (pAcGP67A), High Five insect cells
Description: Inhibition of secreted soluble GalNAc-T4 (sT4) binding to GalNAc-MUC1 glycopeptide, ELISA. As for the experimental part: as §1, §3

pIC50: −log10 of the molar value. Some results are limits rather than exact numbers.

T4 sequence (Q8N4A0 36-578 limits assumed): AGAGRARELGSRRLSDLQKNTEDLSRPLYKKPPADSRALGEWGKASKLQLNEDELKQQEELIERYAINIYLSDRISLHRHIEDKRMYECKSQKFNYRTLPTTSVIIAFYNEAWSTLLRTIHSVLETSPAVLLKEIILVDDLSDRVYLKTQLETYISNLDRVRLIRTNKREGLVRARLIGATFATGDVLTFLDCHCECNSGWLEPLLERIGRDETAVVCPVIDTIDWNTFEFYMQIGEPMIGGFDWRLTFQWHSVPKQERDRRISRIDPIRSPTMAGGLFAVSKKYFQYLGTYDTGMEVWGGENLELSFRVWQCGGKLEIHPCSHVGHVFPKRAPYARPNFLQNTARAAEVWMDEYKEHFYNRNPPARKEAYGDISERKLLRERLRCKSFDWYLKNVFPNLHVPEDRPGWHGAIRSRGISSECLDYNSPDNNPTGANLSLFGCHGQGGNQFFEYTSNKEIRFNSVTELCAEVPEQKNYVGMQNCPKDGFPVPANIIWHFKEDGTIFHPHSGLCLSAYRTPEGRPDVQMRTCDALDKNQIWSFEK

Regarding `OC[C@H]1O[C@@H](O[C@H]2[C@H](O)[C@@H](O)C(O)O[C@@H]2CO)[C@H](O)[C@@H](O)[C@H]1O` (stereo partly shown) [Lactose], the pIC50 in assay [1], in assay [2], in assay [3] and in assay [4] was below 1.00 in each case.

In the case of `CC(=O)N[C@H]1[C@@H](Oc2ccccc2[N+](=O)[O-])O[C@H](CO)[C@H](O)[C@@H]1O` [oNPαGalNAc], the pIC50 (in general, −log10 of the IC50, conventionally taken in molar units) in assay [2] is 2.15; in assay [3] it was 2.30; in assay [4], 3.30.

For `CC(=O)N[C@H]1[C@@H](Oc2ccc([N+](=O)[O-])cc2)O[C@H](CO)[C@H](O)[C@@H]1O` [pNPαGalNAc], the pIC50 in assay [1] is below 2.00; in assay [2], below 2.00; in assay [4] it was 3.00.

The values above are taken from patent publication US20080038809A1, “ISOLATED LECTIN POLYPEPTIDES CONSISTING OF TRUNCATED […] UDP-GalNAc:POLYPEPTIDE N- ACETYLGALACTOSAMINYLTRANSFERASES” (GLYCOZYM APS, priority 2002, published 2008).
